Viability data for 57 molecules are collected here from PMC12040169 (PLOS Biology, 2025).

The data set in a line: in vitro. As to conditions: human, hela cells, % viability.

SMILES strings stand for the structures.

`O=C(N[C@@H]1C[C@H]1c1ccccc1)N1CCC2(CC1)OCc1cc(F)ccc1O2` [CBK060724]: the viability at 28.5 h, 10 µM (bulk resorufin, single well) was 82.1%.

As to `CC(C)(C)NC(=O)N1CCC2(CC1)OCc1cc(Br)ccc1O2` [CBK060739], the viability at 28.5 h, 10 µM (bulk resorufin, single well) was found to be 106%.

As for `CSc1cc(C)c2c(c1)COC1(CCN(C(=O)NC3CCCCC3)CC1)O2` [CBK060745], the viability at 28.5 h, 10 µM (bulk resorufin, single well) came out at 97.4%.

Regarding `CSc1cc(C)c2c(c1)COC1(CCN(C(=O)N[C@@H](C)c3ccccc3)CC1)O2` [CBK060747], the viability at 28.5 h, 10 µM (bulk resorufin, single well) amounted to 94.5%.

Regarding `COc1ccc2c(c1)COC1(CCN(C(=O)Nc3ccc(N(C)C)cc3)CC1)O2` [CBK060753], the viability at 28.5 h, 10 µM (bulk resorufin, single well) was 98.8%.

As for `COc1ccc2c(c1)COC1(CCN(C(=O)N[C@@H](C)c3ccccc3)CC1)O2` [CBK060757], for the setting “bulk resorufin, single well”, the viability at 28.5 h, 10 µM was found to be 106%.

`COc1ccc2c(c1)COC1(CCN(C(=O)NC(=O)c3ccccc3)CC1)O2` [CBK060804]: the viability at 28.5 h, 10 µM (bulk resorufin, single well) is 95.7%.

Turning to `O=C(O)c1ccccc1C(=O)N1CCC2(CC1)OCc1cc(-c3ccco3)ccc1O2` [CBK060824], under “bulk resorufin, single well”, the viability at 28.5 h, 10 µM is 93.6%.

In the case of `O=C(O)C1CC1C(=O)N1CCC2(CC1)OCc1cc(-c3ccco3)ccc1O2` (stereo not drawn) [CBK060825], the viability at 28.5 h, 10 µM (bulk resorufin, single well) was found to be 103%.

Turning to `COc1ccc2c(c1)COC1(CCN(C(=O)C3CCC3C(=O)O)CC1)O2` (stereo not drawn) [CBK060857], the viability at 28.5 h, 10 µM (bulk resorufin, single well) was determined as 97.1%.

`O=C(O)CC1(CC(=O)N2CCC3(CC2)OCc2cc(F)ccc2O3)CCCC1` [CBK060858]: the viability at 28.5 h, 10 µM (bulk resorufin, single well) was 94.7%.

As to `c1cc(-c2ccc3c(c2)COC2(CCNCC2)O3)ccn1` [CBK060867], the viability at 28.5 h, 10 µM (bulk resorufin, single well) is 99%.

For `c1csc(-c2ccc3c(c2)COC2(CCNCC2)O3)c1` [CBK060871], where the note is “bulk resorufin, single well”, the viability at 28.5 h, 10 µM was determined as 90.3%.

As for `CC(=O)N1CCC2(CC1)OCc1cc(-c3c(C)noc3C)ccc1O2` [CBK060896], the viability at 28.5 h, 10 µM (bulk resorufin, single well) came out at 94.4%.

For `CCOC(=O)N1CCC2(CC1)OCc1cc(-c3ccccc3CO)ccc1O2` [CBK060908], the viability at 28.5 h, 10 µM (bulk resorufin, single well) amounted to 103%.

For the molecule `COc1ccc(-c2ccc3c(c2)COC2(CCNCC2)O3)cn1` [CBK060913], the viability at 28.5 h, 10 µM (bulk resorufin, single well) worked out at 81%.

Regarding `Fc1ccc(-c2ccc3c(c2)COC2(CCNCC2)O3)c(F)c1` [CBK060917], the viability at 28.5 h, 10 µM (bulk resorufin, single well) was found to be 96%.

Regarding `c1ccc2cc(-c3ccc4c(c3)COC3(CCNCC3)O4)ccc2c1` [CBK060949], the viability at 28.5 h, 10 µM (bulk resorufin, single well) was found to be 88%.

With `CC(=O)Nc1cccc(-c2ccc3c(c2)COC2(CCNCC2)O3)c1` [CBK060956], the viability at 28.5 h, 10 µM (bulk resorufin, single well) was determined as 94.5%.

Consider `O=[N+]([O-])c1cccc(-c2ccc3c(c2)COC2(CCNCC2)O3)c1` [CBK060957], for which the viability at 28.5 h, 10 µM (bulk resorufin, single well) was determined as 105%.

Regarding `Fc1ccc(-c2ccc3c(c2)COC2(CCNCC2)O3)cc1Cl` [CBK060960], the viability at 28.5 h, 10 µM (bulk resorufin, single well) worked out at 89.8%.

For `CC(=O)N1CCC2(CC1)OCc1cc(-c3ccc(CCC(=O)O)cc3)ccc1O2` [CBK060971], under “bulk resorufin, single well”, the viability at 28.5 h, 10 µM came to 90.3%.

With `CC(=O)N1CCC2(CC1)OCc1cc(-c3ccccc3C(=O)O)ccc1O2` [CBK060975], the viability at 28.5 h, 10 µM (bulk resorufin, single well) is 92.1%.

As to `CCOC(=O)N1CCC2(CC1)OCc1cc(-c3cccc(F)c3)ccc1O2` [CBK060987], the viability at 28.5 h, 10 µM (bulk resorufin, single well) was 104%.

Consider `CC(=O)N1CCC2(CC1)OCc1cc(-c3cncc4ccccc34)ccc1O2` [CBK061010], for which the viability at 28.5 h, 10 µM (bulk resorufin, single well) came out at 90.4%.

Regarding `CN1CCC2(CC1)OCc1cc(-c3cccnc3)ccc1O2` [CBK061020], the viability at 28.5 h, 10 µM was found to be 94.6%.

Take `COc1ccccc1-c1ccc2c(c1)COC1(CCN(C)CC1)O2` [CBK061024]: the viability at 28.5 h, 10 µM came out at 82.2%.

With `c1coc(-c2ccc3c(c2)COC2(CCN(CCc4ccc5c(c4)OCO5)CC2)O3)c1` [CBK061057], the viability at 28.5 h, 10 µM was 90.4%.

As to `O=C(c1ccco1)N1CCC2(CC1)OCc1cc(Cl)ccc1O2` [CBK061068], the viability at 28.5 h, 10 µM (bulk resorufin, single well) was 94.4%.

Consider `COc1cccc2c1OC1(CCN(C(=O)c3cccnc3)CC1)OC2` [CBK061070], for which the viability at 28.5 h, 10 µM (bulk resorufin, single well) was 95.7%.

With `COc1cccc2c1OC1(CCN(C(=O)c3ccno3)CC1)OC2` [CBK061071], under “bulk resorufin, single well”, the viability at 28.5 h, 10 µM turned out to be 97%.

Consider `O=C(Cc1cccs1)N1CCC2(CC1)OCc1ccccc1O2` [CBK061086], for which the viability at 28.5 h, 10 µM (bulk resorufin, single well) turned out to be 86.8%.

`COc1ccc(-c2ccc3c(c2)COC2(CCNCC2)O3)c(OC)c1` [CBK061344]: the viability at 28.5 h, 10 µM (bulk resorufin, single well) was determined as 91.1%.

`CSc1cc(C)c2c(c1)COC1(CCN(CC3CC3)CC1)O2` [CBK061383]: the viability at 28.5 h, 10 µM came to 94.1%.

As for `Cc1cc(C)c2c(c1)COC1(CCN(Cc3ccccc3)CC1)O2` [CBK061572], the viability at 28.5 h, 10 µM amounted to 102%.

As to `Cc1cc(C)c2c(c1)COC1(CCNCC1)O2` [CBK061574], the viability at 28.5 h, 10 µM (bulk resorufin, single well) was found to be 100%.

As for `c1ccc(-c2cccc3c2OC2(CCNCC2)OC3)cc1` [CBK061589], the viability at 28.5 h, 10 µM (bulk resorufin, single well) was determined as 105%.

Take `O=C(COc1ccccc1)Nc1nn(Cc2ccc(S(=O)(=O)N3CCCC3)cc2)c2ccccc12` [CBK061594]: the viability at 28.5 h, 10 µM amounted to 58.6%.

As to `CC(Oc1ccccc1)C(=O)Nc1nn(Cc2ccc(S(=O)(=O)N3CCCC3)cc2)c2ccccc12` (stereo not drawn) [CBK061595], the viability at 28.5 h, 10 µM was determined as 102%.

On to `CCN(Cc1ccncc1)C(CC1CCCCC1)c1ccccc1` (stereo not drawn) [CBK061639T], for which the viability at 28.5 h, 10 µM turned out to be 97.3%.

For `COc1cccc(-c2ccc3ccc(N)nc3n2)c1` [CBK061640], the viability at 28.5 h, 10 µM is 99%.

Turning to `CCN(Cc1cccnc1)C(CC1CCCCC1)c1ccccc1` (stereo not drawn) [CBK061673], the viability at 28.5 h, 10 µM worked out at 98%.

For `CCN(C(=O)c1ccncc1)C(CC1CCCCC1)c1ccccc1` (stereo not drawn) [CBK061674], the viability at 28.5 h, 10 µM amounted to 86.9%.

For `CCNC(=O)N1CCc2c([nH]c3ccc(OC)cc23)C12CCN(CCOc1ccccc1)C2` (stereo not drawn) [CBK061690], the viability at 28.5 h, 10 µM came out at 93%.

Regarding `COc1ccc(CCNC(=O)CCCc2cn(C)c3ccccc23)cc1OC` [CBK061740], the viability at 28.5 h, 10 µM was 100%.

For the molecule `Cc1cccc(C)c1NC(=O)Nc1cc(N2CCNCC2)c2occc2c1` [CBK061748C], the viability at 28.5 h, 10 µM was determined as 82.8%.

On to `COc1ccc(Br)c(C(=O)Nc2cc(N3CCNCC3)c3occc3c2)c1` [CBK061757C], for which the viability at 28.5 h, 10 µM turned out to be 115%.

Regarding `COc1cccc(OCCN2CCC3(C2)NCCc2c3[nH]c3cc(OC)ccc23)c1` (stereo not drawn) [CBK061794], the viability at 28.5 h, 10 µM is 94.3%.

As for `COc1cc(-c2ccc3ccc(N)nc3n2)cc(OC)c1OC` [CBK061866], the viability at 28.5 h, 10 µM turned out to be 90.6%.

Regarding `CCCCCC/C=C/c1cnc2nc(NC(=O)NCC)ccc2c1` [CBK061880], the viability at 28.5 h, 10 µM was determined as 93.3%.

In the case of `CC(C)(C)c1ccc(-c2cnc3nc(N)ccc3c2)cc1` [CBK061888], the viability at 28.5 h, 10 µM stood at 88.3%.

Regarding `CS(=O)(=O)c1ccc(-c2cnc3nc(N)ccc3c2)cc1` [CBK061916], the viability at 28.5 h, 10 µM turned out to be 92.9%.

In the case of `Nc1cc2cccnc2c(-c2ccc(OC(F)(F)F)cc2)n1` [CBK061926], the viability at 28.5 h, 10 µM turned out to be 90%.

Take `CS(=O)(=O)Nc1cc2cccnc2c(-c2ccccc2)n1` [CBK061928]: the viability at 28.5 h, 10 µM is 95.5%.

On to `O=C(c1cc(C(F)(F)F)cc(C(F)(F)F)c1)N1CCC(O)(c2ccc(Cl)cc2)CC1` [CBK061972], for which the viability at 28.5 h, 10 µM turned out to be 96.9%.

For `COc1ccc(S(=O)(=O)Nc2cc(N3CCCC3)c3occc3c2)cc1OC` [CBK061975], the viability at 28.5 h, 10 µM was determined as 97.2%.

For `O=[N+]([O-])c1cccc(S(=O)(=O)Nc2nnc(C(F)(F)F)s2)c1` [CBK062002], the viability at 28.5 h, 10 µM was 118%.

Broadly, the viability is a read-out of living cells in per cent, often relative to untreated cells.
